For one assay, the target named is T1, PLA2G16 (Homo sapiens, UniProt P53816).
T1 construct: Hexa-His (N); made in house; host or cells: E. coli BL21(DE3)
T1 sequence (P53816 1-162): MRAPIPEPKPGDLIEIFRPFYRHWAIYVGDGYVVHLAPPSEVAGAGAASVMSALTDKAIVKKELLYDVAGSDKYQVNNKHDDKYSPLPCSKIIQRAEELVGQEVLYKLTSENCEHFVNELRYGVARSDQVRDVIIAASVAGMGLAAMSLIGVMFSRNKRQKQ
Description: Enzyme activity assay for PLA2G16 (Red/Green BODIPY PC-A2 fluorescence). The assay is classed as biochemical. The conditions noted are these: His-tagged PLA2G16, 4 min pre-incubation, 2 nM to 50 μM; read-out: IC50 values of the compounds determined in the enzyme activity assay for PLA2G16. Put shortly: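 IC50 from non-linear fits of fluorescence rise (480/530 nm, 10 min) after adding Red/Green BODIPY PC-A2 mixed with DOPC/DOPG/cholesterol liposomes. Recombinant His-tagged human enzyme, bacterially expressed, was first exposed to inhibitor (2 nM–50 μM final) for 4 min in 50 mM Tris pH 8.5, 100 mM NaCl, 5 mM glutathione.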

Assay [1] has as its system picornaviruses (CVB1, HRV-A2, HRV-A23, EV-68). Description: Anti-picornavirus cytopathic effect (CPE) reduction assay on HeLa H1 cells. The format is cell-based. The conditions noted are these: Enterovirus B, HeLa H1, 48 h, HeLa H1 cells, 48 h, category from averaging the EC50 values from four picornaviruses (CVB1, HRV-A2, HRV-A23, EV68); read-out: EC50 values of the compounds determined in the anti-picornavirus assay. Put shortly: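 Cytopathic-effect protection: EC50 from non-linear regression of cell viability (CellTiterBlue, 560/590 nm) 48 h post-infection, scaled between infected and mock-infected vehicle wells. Compound dilutions added to HeLa H1 cells 2 h before virus (MOI causing complete CPE within 2 days), in DMEM + 2% FBS; categories average the four viruses.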
In general terms: Damage to the host cells serves as the signal in cytopathic effect assays.

pEC50, pIC50: −log10 of the molar value.

As usually defined, the pIC50 is the negative decadic logarithm of the IC50, by convention in mol/L. What is called pEC50 is the EC50 on a negative log10 scale, so that one unit is a factor of ten. As to `NC(=O)c1cccc(CN2C(=O)CCC2C(=O)C(=O)NCC2CC2)c1` (stereo not shown) [FP 250, 3-[(2-{[(Cyclopropylmethyl)carbamoyl]carbonyl}-5-oxopyrrolidin-1-yl)methyl]benzamide], the pIC50 at PLA2G16 was more than 6.00. Further, in assay [1], the pEC50 was 5.00 to 6.00.
As to `O=CN(CC(=O)C(=O)NCC1CC1)Cc1ccccc1` [FP 193, 3-(N-Benzylformamido)-N-(cyclopropylmethyl)-2-oxopropanamide], the pIC50 on PLA2G16 was more than 6.00. Also, in assay [1], the pEC50 was more than 6.00.
Turning to `O=C(NC1CC1)C(=O)C1CCC(=O)N1Cc1ccc(Cl)c(F)c1` (stereo not shown) [FP 232, 2-{1-[(4-Chloro-3-fluorophenyl)methyl]-5-oxopyrrolidin-2-yl}-N-cyclopropyl-2-oxoacetamide], the pIC50 at PLA2G16 was more than 6.00. Further, the pEC50 in assay [1] was 5.00 to 6.00.
As to `O=C(N[C@@H]1C[C@@H]1F)C(=O)C1N(Cc2ccccc2)C(=O)CC12CC2` (stereo partly drawn) [FP 346, 2-{5-Benzyl-6-oxo-5-azaspiro[2.4]heptan-4-yl}-N-[(1R,2S)-2-fluorocyclopropyl]-2-oxoacetamide], the negative logarithm of the IC50 (pIC50) at PLA2G16 is more than 6.00. In addition, the pEC50 in assay [1] was more than 6.00.
Consider `O=CN(CC1CCOCC1)C(CCc1ccccc1)C(=O)C(=O)NCC1CC1` (stereo not shown) [FP 68, N-(Cyclopropylmethyl)-3-{N-[(oxan-4-yl)methyl]formamido}-2-oxo-5-phenylpentanamide], for which the pIC50 on PLA2G16 was more than 6.00. Moreover, the negative-log EC50 (pEC50) in assay [1] was more than 6.00.
Take `CC(C)CC(C(=O)C(=O)NCC1CC1)N(C=O)C[C@H]1CCOC1` (stereo partly drawn) [FP 65, N-(Cyclopropylmethyl)-5-methyl-2-oxo-3-(N-{[(3R)-oxolan-3-yl]methyl}formamido) hexanamide]: the pIC50 on PLA2G16 is more than 6.00. Further, in assay [1], the pEC50 is 5.00 to 6.00.
In the same order, the values of `O=C(N[C@H]1CCCC[C@H]1O)C(=O)[C@H]1CCC(=O)N1Cc1ccccc1` (single isomer, unassigned) [FP 273] are 5.00 to 6.00 and 5.00 to 6.00.
The like results for `COc1cccc(Cl)c1C(=O)NC(C)C(=O)C(=O)NCC1CC1` (stereo not shown) [FP 212, 3-[(2-Chloro-6-methoxyphenyl)formamido]-N-(cyclopropylmethyl)-2-oxobutanamide] were, in that order, more than 6.00 and 5.00 to 6.00.
The like results for `CC(C)OCCCNC(=O)C(=O)[C@H]1CCC(=O)N1Cc1ccccc1` [FP 301, 2-[(2R)-1-Benzyl-5-oxopyrrolidin-2-yl]-2-oxo-N-[3-(propan-2-yloxy)propyl]acetamide] were, in that order, more than 6.00 and more than 6.00.
With `COCC(=O)N(c1ccccc1OC)C(C)C(=O)C(=O)NCc1cccc(Cl)c1` (stereo not shown) [FP 175, N-[(3-Chlorophenyl)methyl]-3-[2-methoxy-N-(2-methoxyphenyl)acetamido]-2-oxobutanamide], the pIC50 on PLA2G16 is more than 6.00. Further, the pEC50 in assay [1] is 5.00 to 6.00.
In the same order, the values of `CC1(C)CC(=O)N(Cc2ccccc2)C1C(=O)C(=O)NC1CC1` (stereo not shown) [FP 349, 2-(1-Benzyl-3,3-dimethyl-5-oxopyrrolidin-2-yl)-N-cyclopropyl-2-oxoacetamide] are more than 6.00 and 5.00 to 6.00.
For the molecule `CC(NS(=O)(=O)c1ccccc1Cl)C(=O)C(=O)NCC1CC1` (stereo not shown) [FP 191, 3-(2-Chlorobenzenesulfonamido)-N-(cyclopropylmethyl)-2-oxobutanamide], on PLA2G16, the pIC50 was more than 6.00. Also, the pEC50 in assay [1] was 5.00 to 6.00.
In the same order, the values of `CC(C(=O)C(=O)NCC1CCCCC1)N(C(=O)CNS(C)(=O)=O)C1CCCCC1` (stereo not shown) [FP 162, 3-(N-Cyclohexyl-2-methanesulfonamidoacetamido)-N-(cyclohexylmethyl)-2-oxobutanamide] are 4.30 to 5.00 and less than 5.00.
The like results for `O=C(NCCCO)C(=O)C1CCC(=O)N1Cc1ccc(Cl)cc1` (stereo not shown) [FP 275, 2-{1-[(4-Chlorophenyl)methyl]-5-oxopyrrolidin-2-yl}-N-(3-hydroxypropyl)-2-oxoacetamide] were, in that order, more than 6.00 and less than 5.00.

(Values after patent US11091428B2 (HAPLOGEN GMBH, priority 2016, dated 2021).)
